{"source": "patent US20100061943A1", "about": "“ORAL HEALTH COMPOSITION COMPRISING ALCHEMILLA VULGARIS” (MARS INCORPORATED, priority 2006, published 2010)", "format_in_all_cases": "cell-based, cats", "key": {"[1]": {"test_system": "biofilms representative of feline dental plaque", "assay": "Feline plate biofilm assay (PBA): biomass quantification (crystal violet assay)", "settings": "48 hours biofilm, OD595, extracts at 500 μg/ml, vs no active control", "experimental": "(§1) The assay requires fresh supragingival feline dental plaque and saliva for inoculation. The inoculum consists of pooled dental plaque and unfiltered saliva sampled from a group of 18 cats, varying in age, breed and oral health status.\n(§2) The plaque and saliva were resuspended in artificial saliva to form the inoculum of approximately 10% plaque and 30% saliva.\n(§3) The plate biofilm assay (PBA) utilises a 24 well plate format in which biofilms, representative of feline dental plaque, are grown on hydroxyapatite (HA) discs. Prior to being introduced to the 24 well assay plate, each HA disc is preconditioned for 2 hours in a solution of 50% filter sterilised feline saliva in artificial feline saliva. The preconditioning step stimulates the formation of a salivary pellicle on the HA disc surface. […] Each HA disc, with the exception of those being used for biomass quantification, is placed into 500 μl PBS and vortex mixed for 30 seconds to remove biofilm growth from the disc into solution. […] Biofilm-covered HA discs that are being used for biomass quantification are removed from the 24 well assay plate and used directly in the crystal violet assay.\nThe total amount of biofilm grown on the HA discs was quantified using the crystal violet staining method. Biomass was represented as being directly proportional to the OD reading at 595 nm (OD595) of the samples compared to controls. […]"}, "[2]": {"test_system": "Trypsin-like protease activity", "assay": "Feline plate biofilm assay (PBA): protease activity (liquid BAPNA assay)", "settings": "48 hours biofilm, extracts at 500 μg/ml, vs no active control", "experimental": "as §1, §2, §3\nTrypsin-like protease activity was measured using the liquid BAPNA assay, a colourimetric assay in which the amount of trypsin present in a sample is directly proportional to the intensity of the colour developed. […]"}, "Aerobes": {"test_system": "Aerobes", "assay": "Feline plate biofilm assay (PBA): bacterial viable counts, aerobes", "settings": "48 hours biofilm, extracts at 500 μg/ml, vs no active control", "experimental": "as §1, §2\nas §3, with “saliva.” for “saliva. The preconditioning step stimulates the formation of a salivary pellicle on the HA disc surface.”\n(§4) Viable numbers of bacteria were quantified using Columbia blood agar plates supplemented with haemin and menadione. Aerobes were counted after incubation for 2 days and anaerobes, including black pigmenting colonies (BPC), were counted after incubation at appropriate conditions for 9 days. […]"}, "anaerobes": {"test_system": "anaerobes", "assay": "Feline plate biofilm assay (PBA): bacterial viable counts, anaerobes", "settings": "48 hours biofilm, extracts at 500 μg/ml, vs no active control", "experimental": "as §1, §2\nas §3, with “saliva.” for “saliva. The preconditioning step stimulates the formation of a salivary pellicle on the HA disc surface.”\nas §4"}, "[3]": {"test_system": "black pigmenting colonies (BPC)", "assay": "Feline plate biofilm assay (PBA): bacterial viable counts, black pigmenting colonies", "settings": "48 hours biofilm, extracts at 500 μg/ml, vs no active control", "experimental": "as §1, §2\nas §3, with “saliva.” for “saliva. The preconditioning step stimulates the formation of a salivary pellicle on the HA disc surface.”\nas §4"}}}
{"compound": "[H]/N=C(\\N/C(=N/[H])NCCCCCCNC(=N)NC(=N)Nc1ccc(Cl)cc1)Nc1ccc(Cl)cc1", "note": "[Chlorhexidine, chlorhexidine]", "values": [{"measurement": "Biomass (% reduction)", "setting": "[1]", "result": 79.0, "unit": "%"}, {"measurement": "Protease (% reduction)", "setting": "[2]", "result": 90.0, "unit": "%"}, {"measurement": "Aerobe (Log 10 reduction)", "setting": "Aerobes", "result": 1.91, "unit": "Log 10"}, {"measurement": "Anaerobe (Log 10 reduction)", "setting": "anaerobes", "result": 2.16, "unit": "Log 10"}, {"measurement": "BPC (Log 10 reduction)", "setting": "[3]", "result": 4.86, "unit": "Log 10"}]}
